# According to patent publication US9723837B2, “Imidazole derivatives useful for controlling microbial growth” (North Carolina State University, priority 2012, dated 2017):
# How the values were obtained:
# A. baumannii = experiment: Broth microdilution MIC, A. baumannii; type: cell-based; details: Mueller-Hinton medium, 37° C., 16 hours
# Procedure: (§1) Each member of the pilot library was tested for antibiotic activity. Activity was quantified by measuring the MIC of each derivative against a variety of representative pathogenic bacterial strains using the microdilution protocol (CSLI, Performance Standards for Antimicrobial Susceptibility Testing; Nineteenth Informational Supplement, Clinical and Laboratory Standards Institute, Wayne, Pa., 2009). A. baumannii, E. coli, MSSA, and MRSA were used for initial evaluation. […] Compounds 4d, 4n, and 4o were determined to be the lead compounds.
# (§2) Broth Microdilution Method for MIC Determination.
# (§3) Overnight cultures of bacterial strain were subcultured to 5×10^5 CFU/mL in Mueller-Hinton medium (Fluka #70192). The resulting bacterial suspension was aliquoted (1.0 mL) into culture tubes. Samples were prepared from these culture tubes containing either 256 μg/mL of specified antibiotic or no test compound as a control. Samples were then aliquoted (200 μL) into the first row of wells of a 96-well microtiter plate in which subsequent wells were prefilled with 100 μL of Mueller-Hinton medium based 5×10^5 CFU/mL bacterial subculture. Using the multichannel pipettor set at 100 μL, row one wells were mixed 8-10 times. Then, 100 μL were withdrawn and transferred to row two. Row two wells were mixed 8-10 times followed by a 100 μL transfer from row two to row three. This procedure was used to serial dilute the rest of the rows of the microtier plate. The microtiter plate sample was then covered with a microtiter plate lid and then placed in a covered plastic container. The chamber was incubated under stationary conditions at 37° C.
# E. coli = experiment: Broth microdilution MIC, E. coli; type: cell-based; details: Mueller-Hinton medium, 37° C., 16 hours
# Procedure: as §1, §2, §3
# MSSA = experiment: Broth microdilution MIC, MSSA; type: cell-based, Staphylococcus aureus; details: Mueller-Hinton medium, 37° C., 16 hours
# Procedure: as §1, §2, §3
# MRSA ATCC BAA 44 = experiment: Broth microdilution MIC, MRSA ATCC BAA 44; type: cell-based, Staphylococcus aureus; details: for MIC MRSA: Table 2 pilot library screen; for MIC MRSA BAA 44: Table 3 nine-strain screen
# Procedure: as §1
# (§4) Once it was noted that compounds were active against MSSA and MRSA, the library was tested against various MRSA strains isolated from a nosocomial environment. MRSA has emerged as a major cause of illness and death in hospitals. These illnesses include lower respiratory tract infections, surgical site infections, cardiovascular infections and pneumonia. Nine different MRSA strains were obtained, and lead compounds 4d and 4o were screened for activity.
# as §2, §3
# MRSA ATCC BAA 1770 = experiment: Broth microdilution MIC, MRSA ATCC BAA 1770; type: cell-based, Staphylococcus aureus
# Procedure: as §4, §2
# as §3, with “The microtiter plate sample was then covered with a microtiter plate lid and then placed in a covered plastic container. The chamber was incubated under stationary conditions at 37° C.” left out
# MRSA ATCC BAA 1556 = experiment: Broth microdilution MIC, MRSA ATCC BAA 1556; type: cell-based, Staphylococcus aureus
# Procedure: as §4, §2
# as §3, with “The microtiter plate sample was then covered with a microtiter plate lid and then placed in a covered plastic container. The chamber was incubated under stationary conditions at 37° C.” left out
# MRSA ATCC BAA 811 = experiment: Broth microdilution MIC, MRSA ATCC BAA 811; type: cell-based, Staphylococcus aureus
# Procedure: as §4, §2
# as §3, with “The microtiter plate sample was then covered with a microtiter plate lid and then placed in a covered plastic container. The chamber was incubated under stationary conditions at 37° C.” left out
# MRSA ATCC BAA 1685 = experiment: Broth microdilution MIC, MRSA ATCC BAA 1685; type: cell-based, Staphylococcus aureus
# Procedure: as §4, §2
# as §3, with “The microtiter plate sample was then covered with a microtiter plate lid and then placed in a covered plastic container. The chamber was incubated under stationary conditions at 37° C.” left out
# MRSA ATCC BAA 1753 = experiment: Broth microdilution MIC, MRSA ATCC BAA 1753; type: cell-based, Staphylococcus aureus
# Procedure: as §4, §2
# as §3, with “The microtiter plate sample was then covered with a microtiter plate lid and then placed in a covered plastic container. The chamber was incubated under stationary conditions at 37° C.” left out
# MRSA ATCC 33591 = experiment: Broth microdilution MIC, MRSA ATCC 33591; type: cell-based, Staphylococcus aureus
# Procedure: as §4, §2
# as §3, with “The microtiter plate sample was then covered with a microtiter plate lid and then placed in a covered plastic container. The chamber was incubated under stationary conditions at 37° C.” left out
# MRSA ATCC 700789 = experiment: Broth microdilution MIC, MRSA ATCC 700789; type: cell-based, Staphylococcus aureus
# Procedure: as §4, §2
# as §3, with “The microtiter plate sample was then covered with a microtiter plate lid and then placed in a covered plastic container. The chamber was incubated under stationary conditions at 37° C.” left out
# MRSA ATCC 43300 = experiment: Broth microdilution MIC, MRSA ATCC 43300; type: cell-based, Staphylococcus aureus
# Procedure: as §4, §2
# as §3, with “The microtiter plate sample was then covered with a microtiter plate lid and then placed in a covered plastic container. The chamber was incubated under stationary conditions at 37° C.” left out
structure (smiles),measurement,setting,value
Cc1nc(N)n(-c2ccccc2)c1-c1ccccc1 [Compound 4a],MIC A. baumannii,A. baumannii,128 µg/mL
same,MIC E. coli,E. coli,256 µg/mL
same,MIC MSSA,MSSA,256 µg/mL
same,MIC MRSA,MRSA ATCC BAA 44,256 µg/mL
CCCCCCc1nc(N)n(-c2ccccc2)c1-c1ccccc1 [Compound 4b],MIC A. baumannii,A. baumannii,>256 µg/mL
same,MIC E. coli,E. coli,>256 µg/mL
same,MIC MSSA,MSSA,16 µg/mL
same,MIC MRSA,MRSA ATCC BAA 44,8 µg/mL
Nc1nc(-c2ccccc2)c(-c2ccccc2)n1-c1ccccc1 [Compound 4c],MIC A. baumannii,A. baumannii,>256 µg/mL
same,MIC E. coli,E. coli,>256 µg/mL
same,MIC MSSA,MSSA,>256 µg/mL
same,MIC MRSA,MRSA ATCC BAA 44,>256 µg/mL
CCCCCCCc1ccc(-n2c(N)nc(C)c2-c2ccccc2)cc1 [Compound 4d],MIC A. baumannii,A. baumannii,64 µg/mL
same,MIC E. coli,E. coli,>256 µg/mL
same,MIC MSSA,MSSA,4 µg/mL
same,MIC MRSA,MRSA ATCC BAA 44,2 µg/mL
same,MIC MRSA BAA 44,MRSA ATCC BAA 44,2 µg/mL
same,MIC MRSA BAA 1770,MRSA ATCC BAA 1770,8 µg/mL
same,MIC MRSA BAA 1556,MRSA ATCC BAA 1556,4 µg/mL
same,MIC MRSA BAA 811,MRSA ATCC BAA 811,2 µg/mL
same,MIC MRSA BAA 1685,MRSA ATCC BAA 1685,4 µg/mL
same,MIC MRSA BAA 1753,MRSA ATCC BAA 1753,4 µg/mL
same,MIC MRSA 33591,MRSA ATCC 33591,8 µg/mL
same,MIC MRSA 700789,MRSA ATCC 700789,4 µg/mL
same,MIC MRSA 43300,MRSA ATCC 43300,2 µg/mL
CCCCCCCc1ccc(-n2c(N)nc(CCCCCC)c2-c2ccccc2)cc1 [Compound 4e],MIC A. baumannii,A. baumannii,>256 µg/mL
same,MIC E. coli,E. coli,>256 µg/mL
same,MIC MSSA,MSSA,>256 µg/mL
same,MIC MRSA,MRSA ATCC BAA 44,128 µg/mL
CCCCCCCc1ccc(-n2c(N)nc(-c3ccccc3)c2-c2ccccc2)cc1 [Compound 4f],MIC A. baumannii,A. baumannii,>256 µg/mL
same,MIC E. coli,E. coli,>256 µg/mL
same,MIC MSSA,MSSA,>256 µg/mL
same,MIC MRSA,MRSA ATCC BAA 44,>256 µg/mL
CCCCCCCCCCc1ccc(-n2c(N)nc(C)c2-c2ccccc2)cc1 [Compound 4g],MIC A. baumannii,A. baumannii,>256 µg/mL
same,MIC E. coli,E. coli,>256 µg/mL
same,MIC MSSA,MSSA,32 µg/mL
same,MIC MRSA,MRSA ATCC BAA 44,4 µg/mL
CCCCCCCCCCc1ccc(-n2c(N)nc(CCCCCC)c2-c2ccccc2)cc1 [Compound 4h],MIC A. baumannii,A. baumannii,>256 µg/mL
same,MIC E. coli,E. coli,>256 µg/mL
same,MIC MSSA,MSSA,>256 µg/mL
same,MIC MRSA,MRSA ATCC BAA 44,>256 µg/mL
CCCCCCCCCCc1ccc(-n2c(N)nc(-c3ccccc3)c2-c2ccccc2)cc1 [Compound 4i],MIC A. baumannii,A. baumannii,>256 µg/mL
same,MIC E. coli,E. coli,>256 µg/mL
same,MIC MSSA,MSSA,>256 µg/mL
same,MIC MRSA,MRSA ATCC BAA 44,>256 µg/mL
CCCCCCc1nc(N)n(-c2ccc(-c3ccccc3)cc2)c1-c1ccccc1 [Compound 4j],MIC A. baumannii,A. baumannii,>256 µg/mL
same,MIC E. coli,E. coli,>256 µg/mL
same,MIC MSSA,MSSA,4 µg/mL
same,MIC MRSA,MRSA ATCC BAA 44,4 µg/mL
Nc1nc(-c2ccccc2)c(-c2ccccc2)n1-c1ccc(-c2ccccc2)cc1 [Compound 4k],MIC A. baumannii,A. baumannii,>256 µg/mL
same,MIC E. coli,E. coli,>256 µg/mL
same,MIC MSSA,MSSA,>256 µg/mL
same,MIC MRSA,MRSA ATCC BAA 44,>256 µg/mL
CCCCCCc1nc(N)n(-c2ccccc2)c1-c1ccc(C)cc1 [Compound 4l],MIC A. baumannii,A. baumannii,>256 µg/mL
same,MIC E. coli,E. coli,>256 µg/mL
same,MIC MSSA,MSSA,8 µg/mL
same,MIC MRSA,MRSA ATCC BAA 44,4 µg/mL
Cc1ccc(-c2c(-c3ccccc3)nc(N)n2-c2ccccc2)cc1 [Compound 4m],MIC A. baumannii,A. baumannii,>256 µg/mL
same,MIC E. coli,E. coli,>256 µg/mL
same,MIC MSSA,MSSA,>256 µg/mL
same,MIC MRSA,MRSA ATCC BAA 44,>256 µg/mL
CCCc1ccc(-n2c(N)nc(C)c2-c2ccccc2)cc1 [Compound 4n],MIC A. baumannii,A. baumannii,64 µg/mL
same,MIC E. coli,E. coli,64 µg/mL
same,MIC MSSA,MSSA,32 µg/mL
same,MIC MRSA,MRSA ATCC BAA 44,32 µg/mL
CCCCCc1ccc(-n2c(N)nc(C)c2-c2ccccc2)cc1 [Compound 4o],MIC A. baumannii,A. baumannii,16 µg/mL
same,MIC E. coli,E. coli,>256 µg/mL
same,MIC MSSA,MSSA,8 µg/mL
same,MIC MRSA,MRSA ATCC BAA 44,4 µg/mL
same,MIC MRSA BAA 44,MRSA ATCC BAA 44,4 µg/mL
same,MIC MRSA BAA 1770,MRSA ATCC BAA 1770,8 µg/mL
same,MIC MRSA BAA 1556,MRSA ATCC BAA 1556,8 µg/mL
same,MIC MRSA BAA 811,MRSA ATCC BAA 811,8 µg/mL
same,MIC MRSA BAA 1685,MRSA ATCC BAA 1685,8 µg/mL
same,MIC MRSA BAA 1753,MRSA ATCC BAA 1753,8 µg/mL
same,MIC MRSA 33591,MRSA ATCC 33591,8 µg/mL
same,MIC MRSA 700789,MRSA ATCC 700789,8 µg/mL
same,MIC MRSA 43300,MRSA ATCC 43300,8 µg/mL
